Measured values as given in ChEMBL document CHEMBL1201862, “PubChem BioAssay data set” (2004).
Calls of active or inactive are those of the source.

Experiments:
[1] = biological target: T1, Polyadenylate-binding protein 1 (Homo sapiens, UniProt P11940); test: MLLE binding blockers, Cy5 peptide tracer – biochemical, fluorescence polarization, Cy5-PAM2 peptide, secondary, miRNA deadenylation inhibitor project, dose response (AID 602260); assay type: functional; details: read-out: IC50_Mean
[2] = biological target: T1, Polyadenylate-binding protein 1; test: MLLE domain peptide-binding blockers, IC50 – biochemical, fluorescence polarization, FITC-PAM2 peptide, dose response (AID 602259); assay type: functional; details: read-out: IC50_Mean
[3] = intracellular Trypanosoma cruzi inhibitors in host cells – cell-based, plate reader, cherry-pick samples, set 3, dose response (AID 651818); assay type: functional;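 also: compounds incubated with infected cells for about four days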
[4] = biological target: Ephrin type-A receptor 4 (Mus musculus, UniProt Q03137); test: EphA4 ligand-binding antagonists – biochemical, colorimetric, mouse EphA4, primary screen (AID 689); assay type: functional
Ephrin type-A receptor 4, sequence (Q03137 whole entry): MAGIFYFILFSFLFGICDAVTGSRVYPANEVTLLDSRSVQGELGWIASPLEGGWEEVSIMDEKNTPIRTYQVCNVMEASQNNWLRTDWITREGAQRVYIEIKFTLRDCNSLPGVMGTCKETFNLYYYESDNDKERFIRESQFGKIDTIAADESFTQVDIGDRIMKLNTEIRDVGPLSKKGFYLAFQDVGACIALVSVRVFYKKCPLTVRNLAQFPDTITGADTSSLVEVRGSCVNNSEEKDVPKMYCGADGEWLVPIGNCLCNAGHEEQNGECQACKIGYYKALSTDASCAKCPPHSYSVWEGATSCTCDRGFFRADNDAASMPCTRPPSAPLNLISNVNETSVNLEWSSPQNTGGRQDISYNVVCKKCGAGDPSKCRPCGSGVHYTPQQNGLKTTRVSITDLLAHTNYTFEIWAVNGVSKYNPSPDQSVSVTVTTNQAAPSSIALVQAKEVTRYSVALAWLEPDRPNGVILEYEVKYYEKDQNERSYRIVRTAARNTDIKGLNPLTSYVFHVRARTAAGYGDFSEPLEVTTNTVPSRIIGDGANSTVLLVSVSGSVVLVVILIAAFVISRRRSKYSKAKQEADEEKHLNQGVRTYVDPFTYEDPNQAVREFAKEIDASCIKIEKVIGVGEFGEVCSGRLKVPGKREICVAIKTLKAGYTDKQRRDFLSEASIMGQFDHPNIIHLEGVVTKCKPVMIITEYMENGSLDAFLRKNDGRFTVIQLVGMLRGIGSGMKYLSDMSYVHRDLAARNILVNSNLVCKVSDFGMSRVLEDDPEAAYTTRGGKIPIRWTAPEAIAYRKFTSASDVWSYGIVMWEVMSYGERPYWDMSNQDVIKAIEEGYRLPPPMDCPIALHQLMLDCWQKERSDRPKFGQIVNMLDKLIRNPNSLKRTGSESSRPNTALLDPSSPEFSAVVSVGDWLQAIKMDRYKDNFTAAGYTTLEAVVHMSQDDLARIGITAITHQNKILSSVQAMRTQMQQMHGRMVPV

[5] = biological target: FAD-linked sulfhydryl oxidase ALR (Homo sapiens, UniProt P55789); test: ALR-catalysed DTT oxidation blockers – biochemical, H2O2 detection, luminescence, cherry-pick, dose response (AID 493248)
FAD-linked sulfhydryl oxidase ALR, sequence (P55789 whole entry): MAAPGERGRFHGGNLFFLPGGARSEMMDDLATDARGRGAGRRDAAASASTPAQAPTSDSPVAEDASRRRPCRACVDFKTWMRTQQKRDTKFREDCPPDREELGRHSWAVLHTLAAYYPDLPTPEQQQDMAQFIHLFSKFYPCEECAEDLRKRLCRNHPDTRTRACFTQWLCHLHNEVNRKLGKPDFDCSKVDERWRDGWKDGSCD

[6] = biological target: Glyceraldehyde-3-phosphate dehydrogenase (Homo sapiens, UniProt P04406)
Glyceraldehyde-3-phosphate dehydrogenase, sequence (P04406 whole entry): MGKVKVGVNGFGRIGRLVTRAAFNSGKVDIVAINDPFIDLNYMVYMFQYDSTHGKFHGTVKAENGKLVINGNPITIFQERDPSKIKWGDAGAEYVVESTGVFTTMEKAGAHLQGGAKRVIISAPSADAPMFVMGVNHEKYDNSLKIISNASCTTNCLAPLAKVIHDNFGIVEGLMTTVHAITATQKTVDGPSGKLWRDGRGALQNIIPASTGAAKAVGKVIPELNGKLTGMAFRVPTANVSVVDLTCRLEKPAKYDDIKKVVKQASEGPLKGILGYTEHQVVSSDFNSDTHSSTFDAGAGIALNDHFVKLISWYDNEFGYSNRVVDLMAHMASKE

[7] = biological target: Cytochrome P450 2C19 (Homo sapiens, UniProt P33261); test: Cytochrome panel assay with activity outcomes. Panel member name: p450-cyp2c19 Compounds with AC50 equal or less than 10 uM are considered active; assay type: functional; details: read-out: AC50
Cytochrome P450 2C19, sequence (P33261 whole entry): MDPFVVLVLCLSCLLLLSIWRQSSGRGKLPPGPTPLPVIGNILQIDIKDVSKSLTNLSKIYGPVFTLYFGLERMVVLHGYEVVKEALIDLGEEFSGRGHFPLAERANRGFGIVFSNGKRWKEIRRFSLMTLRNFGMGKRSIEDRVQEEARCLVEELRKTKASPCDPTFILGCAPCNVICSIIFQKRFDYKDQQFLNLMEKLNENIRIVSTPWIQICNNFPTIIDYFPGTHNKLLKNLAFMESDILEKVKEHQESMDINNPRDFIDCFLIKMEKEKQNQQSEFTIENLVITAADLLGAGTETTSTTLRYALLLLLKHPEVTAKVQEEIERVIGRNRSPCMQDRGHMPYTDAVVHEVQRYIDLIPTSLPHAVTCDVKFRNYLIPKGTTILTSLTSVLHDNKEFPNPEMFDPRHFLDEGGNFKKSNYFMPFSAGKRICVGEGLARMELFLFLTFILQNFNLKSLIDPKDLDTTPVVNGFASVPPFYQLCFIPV

[8] = biological target: T2, Histone-lysine N-methyltransferase NSD2 (Homo sapiens, UniProt O96028); assay type: biochemical
T2 sequence (O96028 whole entry): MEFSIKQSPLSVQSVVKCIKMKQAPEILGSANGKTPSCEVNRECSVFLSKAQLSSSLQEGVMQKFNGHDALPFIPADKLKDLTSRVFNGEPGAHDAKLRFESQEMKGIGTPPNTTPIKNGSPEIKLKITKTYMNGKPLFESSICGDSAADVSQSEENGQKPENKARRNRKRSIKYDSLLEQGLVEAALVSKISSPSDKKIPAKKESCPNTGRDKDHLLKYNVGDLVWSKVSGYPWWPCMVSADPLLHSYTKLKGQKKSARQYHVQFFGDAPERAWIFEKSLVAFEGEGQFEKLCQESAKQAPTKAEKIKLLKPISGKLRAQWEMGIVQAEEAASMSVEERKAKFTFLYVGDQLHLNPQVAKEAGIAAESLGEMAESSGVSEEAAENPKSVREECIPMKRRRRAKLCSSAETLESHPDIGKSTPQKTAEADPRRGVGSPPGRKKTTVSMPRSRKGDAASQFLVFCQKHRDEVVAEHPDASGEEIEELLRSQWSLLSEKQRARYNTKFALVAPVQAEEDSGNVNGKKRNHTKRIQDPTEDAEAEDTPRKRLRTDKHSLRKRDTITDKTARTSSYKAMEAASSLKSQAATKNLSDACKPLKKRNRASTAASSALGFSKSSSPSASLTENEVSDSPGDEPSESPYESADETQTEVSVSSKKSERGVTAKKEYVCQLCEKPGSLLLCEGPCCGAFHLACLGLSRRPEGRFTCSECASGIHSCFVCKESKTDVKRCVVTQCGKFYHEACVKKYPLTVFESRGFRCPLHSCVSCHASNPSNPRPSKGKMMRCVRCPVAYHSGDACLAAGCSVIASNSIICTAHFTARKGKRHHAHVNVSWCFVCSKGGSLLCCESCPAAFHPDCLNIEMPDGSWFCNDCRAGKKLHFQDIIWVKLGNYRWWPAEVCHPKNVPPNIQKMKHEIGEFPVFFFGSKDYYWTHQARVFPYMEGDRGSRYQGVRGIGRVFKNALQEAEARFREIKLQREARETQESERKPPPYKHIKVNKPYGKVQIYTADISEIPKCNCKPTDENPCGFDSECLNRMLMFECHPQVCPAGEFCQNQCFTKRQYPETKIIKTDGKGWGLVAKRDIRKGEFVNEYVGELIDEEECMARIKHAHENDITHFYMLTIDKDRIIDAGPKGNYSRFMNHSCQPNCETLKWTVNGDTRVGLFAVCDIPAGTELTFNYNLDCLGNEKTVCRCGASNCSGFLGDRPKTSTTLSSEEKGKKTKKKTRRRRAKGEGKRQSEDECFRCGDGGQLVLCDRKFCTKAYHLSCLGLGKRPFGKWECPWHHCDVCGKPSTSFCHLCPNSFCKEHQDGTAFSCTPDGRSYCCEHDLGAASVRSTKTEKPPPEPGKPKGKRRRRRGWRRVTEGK

[9] = biological target: Prothrombin (Homo sapiens, UniProt P00734); test: Thrombin 1536 HTS Dose Response Confirmation. [Related pubchem assays: 1046 (Thrombin 1536 HTS; hits were confirmed in this assay)]; assay type: functional
[10] = biological target: Cytochrome P450 2C9 (Homo sapiens, UniProt P11712)
Cytochrome P450 2C9, sequence (P11712 whole entry): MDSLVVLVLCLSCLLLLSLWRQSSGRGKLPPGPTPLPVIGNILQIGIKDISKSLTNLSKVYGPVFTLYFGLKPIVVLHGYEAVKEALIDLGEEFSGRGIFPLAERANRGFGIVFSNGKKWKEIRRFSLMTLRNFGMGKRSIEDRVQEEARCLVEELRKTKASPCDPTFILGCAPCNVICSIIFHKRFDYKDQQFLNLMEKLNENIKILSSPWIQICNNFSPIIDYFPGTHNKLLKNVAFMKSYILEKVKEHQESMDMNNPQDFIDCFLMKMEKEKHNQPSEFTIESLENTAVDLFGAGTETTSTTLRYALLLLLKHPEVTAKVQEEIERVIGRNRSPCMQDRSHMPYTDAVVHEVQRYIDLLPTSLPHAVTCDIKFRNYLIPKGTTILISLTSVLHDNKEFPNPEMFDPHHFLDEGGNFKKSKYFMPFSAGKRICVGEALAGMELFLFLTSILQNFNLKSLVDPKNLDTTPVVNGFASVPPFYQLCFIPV

[11] = biological target: Large T antigen (Simian virus 40, UniProt P03070); assay type: functional, Betapolyomavirus macacae;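 also: Confirmatory-stage PubChem screen for compounds that inhibit SV40 T antigen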
Large T antigen, sequence (P03070 whole entry): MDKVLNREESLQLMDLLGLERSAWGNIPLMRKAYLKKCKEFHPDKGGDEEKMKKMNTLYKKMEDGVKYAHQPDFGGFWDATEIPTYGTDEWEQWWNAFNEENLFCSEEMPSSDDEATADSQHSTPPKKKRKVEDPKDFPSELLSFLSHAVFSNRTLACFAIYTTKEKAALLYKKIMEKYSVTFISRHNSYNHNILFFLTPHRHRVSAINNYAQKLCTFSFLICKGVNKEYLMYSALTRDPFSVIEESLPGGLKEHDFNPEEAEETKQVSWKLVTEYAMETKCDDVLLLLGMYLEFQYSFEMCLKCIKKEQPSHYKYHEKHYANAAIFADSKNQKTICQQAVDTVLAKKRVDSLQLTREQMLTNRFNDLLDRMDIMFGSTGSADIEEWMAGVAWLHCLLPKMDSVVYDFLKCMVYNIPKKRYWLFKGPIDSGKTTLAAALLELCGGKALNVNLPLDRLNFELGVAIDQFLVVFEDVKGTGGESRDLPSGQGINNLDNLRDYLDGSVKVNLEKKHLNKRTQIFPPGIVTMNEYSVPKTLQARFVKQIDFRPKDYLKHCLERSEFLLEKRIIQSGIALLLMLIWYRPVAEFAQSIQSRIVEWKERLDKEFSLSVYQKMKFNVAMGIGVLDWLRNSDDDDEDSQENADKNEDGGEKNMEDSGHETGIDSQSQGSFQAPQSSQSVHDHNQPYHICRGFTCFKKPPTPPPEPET

[12] = alpha-synuclein stem-loop luciferase translation blockers – H4 neuroglioma cells, luminescence, confirmation (AID 1988); assay type: functional, cell-based
[13] = tested on: INS1; test: INS-1E survival protection against cytokine death – cell-based, luminescence, retest, dose response (AID 449756); assay type: functional; details: Rattus norvegicus;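 also: cell death triggered by IL-1 beta plus TNF-alpha plus IFN-gamma mixture; protective hits raise ATP signal compared with cytokine alone wells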
[14] = Luminescence Cell-Based Dose Response HTS to Identify Inhibitors of 5'UTR Stem-Loop Driven Prion Protein mRNA Translation in H4 Neuroglioblastoma Cells. [Related pubchem assays: 1827 (Project Summary), 1813 (Primary HTS)]; assay type: functional
[15] = luciferase reporter signal suppression in cells – H4 neuroglioma cells, luminescence, dose response (AID 1990); assay type: functional, cell-based
[16] = biological target: T3, Estrogen receptor beta (Homo sapiens, UniProt Q92731);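 also: recombinant ER-beta bound to coactivator SRC1 peptide in presence of estradiol agonist; inhibitors block coactivator peptide binding and lower the FRET signal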
T3 sequence (Q92731 whole entry): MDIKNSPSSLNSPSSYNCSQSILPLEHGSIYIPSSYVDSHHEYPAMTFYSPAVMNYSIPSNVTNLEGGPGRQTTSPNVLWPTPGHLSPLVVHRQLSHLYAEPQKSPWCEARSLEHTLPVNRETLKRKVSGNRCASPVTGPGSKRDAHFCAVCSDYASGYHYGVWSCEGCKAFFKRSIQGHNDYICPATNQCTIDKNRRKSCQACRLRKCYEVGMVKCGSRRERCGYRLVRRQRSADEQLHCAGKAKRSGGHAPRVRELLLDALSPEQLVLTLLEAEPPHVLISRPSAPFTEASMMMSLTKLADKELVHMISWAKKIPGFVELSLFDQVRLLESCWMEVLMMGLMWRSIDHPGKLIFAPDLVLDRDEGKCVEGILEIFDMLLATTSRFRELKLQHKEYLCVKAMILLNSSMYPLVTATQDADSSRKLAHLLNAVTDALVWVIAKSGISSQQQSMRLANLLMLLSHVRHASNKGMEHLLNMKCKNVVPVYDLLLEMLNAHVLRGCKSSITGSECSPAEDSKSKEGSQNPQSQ

[17] = biological target: T3, Estrogen receptor beta; test: blockers of SRC-3 recruitment to ERβ – biochemical, ELISA, streptavidin-HRP readout, orthogonal assay, confirmation (AID 1060)
[18] = HIV-1 AD8 envelope cell-cell fusion blockers – cherry-pick, dose response (AID 652062); assay type: functional, cell-based;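 also: luciferase signal from cell-cell fusion driven by HIV-1 clade B AD8 Env; potency is for inhibitors of fusion seen as a drop in luminescence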
[19] = blockers of HIV-1 ZM109 envelope-driven cell-cell fusion – HeLa effector, CEM target cells, luciferase, cherry-pick, dose response (AID 652058); assay type: functional, cell-based;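 also: luciferase signal from HIV-1 Env mediated cell-cell fusion of effector and target cells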
[20] = blockers of HIV-1 envelope-mediated cell-cell fusion – cherry-pick, dose response (AID 652057); assay type: functional, cell-based
[21] = biological target: T4, Protein RecA (Mycobacterium tuberculosis, UniProt P9WHJ3); test: Fluorescence Cell-Free Homogeneous Dose Retest to Identify Inhibitors of RecA-Intein Splicing Activity. [Related pubchem assays (depositor defined):AID2097, AID2223, AID489010, AID492950]; assay type: functional
T4 sequence (P9WHJ3 whole entry): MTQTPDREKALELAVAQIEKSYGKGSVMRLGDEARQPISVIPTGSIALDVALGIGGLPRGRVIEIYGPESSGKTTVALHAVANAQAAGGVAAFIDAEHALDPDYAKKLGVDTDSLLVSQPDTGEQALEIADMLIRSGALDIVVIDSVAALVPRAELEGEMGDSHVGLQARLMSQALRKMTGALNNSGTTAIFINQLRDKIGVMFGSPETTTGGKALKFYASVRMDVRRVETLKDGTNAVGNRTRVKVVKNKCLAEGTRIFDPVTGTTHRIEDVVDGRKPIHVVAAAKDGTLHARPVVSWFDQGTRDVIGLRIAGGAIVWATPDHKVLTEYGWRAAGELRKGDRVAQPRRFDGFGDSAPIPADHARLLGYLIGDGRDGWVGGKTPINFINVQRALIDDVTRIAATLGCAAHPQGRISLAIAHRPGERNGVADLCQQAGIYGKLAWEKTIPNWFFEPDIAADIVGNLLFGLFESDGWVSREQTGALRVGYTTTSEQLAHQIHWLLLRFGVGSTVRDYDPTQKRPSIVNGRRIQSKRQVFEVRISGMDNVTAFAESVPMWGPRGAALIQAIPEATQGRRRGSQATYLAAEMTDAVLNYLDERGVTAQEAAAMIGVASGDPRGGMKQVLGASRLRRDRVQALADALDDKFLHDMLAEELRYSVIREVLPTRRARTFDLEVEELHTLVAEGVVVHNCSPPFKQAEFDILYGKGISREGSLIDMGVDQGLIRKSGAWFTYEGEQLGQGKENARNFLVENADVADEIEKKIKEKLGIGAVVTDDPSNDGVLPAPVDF

[22] = biological target: T5, Replicative DNA helicase DnaB (Mycobacterium tuberculosis, UniProt P9WMR3); test: DnaB intein splicing inhibitors, dose response, biochemical, cell-free fluorescence (AID 449749); assay type: functional
T5 sequence (P9WMR3 whole entry): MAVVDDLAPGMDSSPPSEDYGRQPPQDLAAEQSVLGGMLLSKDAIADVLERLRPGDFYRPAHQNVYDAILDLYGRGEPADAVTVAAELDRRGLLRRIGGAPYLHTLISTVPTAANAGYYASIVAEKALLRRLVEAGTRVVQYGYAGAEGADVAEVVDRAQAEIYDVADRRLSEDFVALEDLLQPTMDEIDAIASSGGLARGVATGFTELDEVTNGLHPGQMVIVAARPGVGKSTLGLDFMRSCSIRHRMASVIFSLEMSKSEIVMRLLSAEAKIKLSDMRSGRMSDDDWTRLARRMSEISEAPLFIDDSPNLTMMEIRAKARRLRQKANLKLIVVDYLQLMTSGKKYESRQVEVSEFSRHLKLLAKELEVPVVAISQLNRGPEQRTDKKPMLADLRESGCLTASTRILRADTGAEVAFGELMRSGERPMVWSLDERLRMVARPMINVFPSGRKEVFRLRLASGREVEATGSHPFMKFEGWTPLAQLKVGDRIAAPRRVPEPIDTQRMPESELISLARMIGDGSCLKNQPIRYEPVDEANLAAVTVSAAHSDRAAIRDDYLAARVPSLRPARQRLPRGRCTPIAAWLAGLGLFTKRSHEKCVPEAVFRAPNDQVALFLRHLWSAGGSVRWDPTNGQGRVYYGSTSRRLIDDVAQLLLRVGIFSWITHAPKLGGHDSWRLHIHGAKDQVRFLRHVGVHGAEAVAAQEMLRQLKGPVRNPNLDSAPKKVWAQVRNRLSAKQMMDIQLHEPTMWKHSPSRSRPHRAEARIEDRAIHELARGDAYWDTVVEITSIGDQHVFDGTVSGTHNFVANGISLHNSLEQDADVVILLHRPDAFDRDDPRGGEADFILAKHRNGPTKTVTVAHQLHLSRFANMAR

[23] = off-target signal loss in HeLa-CEM21 co-culture – HeLa F-luc CTL cells, cherry-picked, counter-screen for HIV-1 Env fusion inhibitor project, dose response (AID 652040); assay type: functional, cell-based;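 also: potency for signal decrease marking cytotoxic or nonspecific inhibition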

T1 sequence (P11940 whole entry, the tested form may be a part): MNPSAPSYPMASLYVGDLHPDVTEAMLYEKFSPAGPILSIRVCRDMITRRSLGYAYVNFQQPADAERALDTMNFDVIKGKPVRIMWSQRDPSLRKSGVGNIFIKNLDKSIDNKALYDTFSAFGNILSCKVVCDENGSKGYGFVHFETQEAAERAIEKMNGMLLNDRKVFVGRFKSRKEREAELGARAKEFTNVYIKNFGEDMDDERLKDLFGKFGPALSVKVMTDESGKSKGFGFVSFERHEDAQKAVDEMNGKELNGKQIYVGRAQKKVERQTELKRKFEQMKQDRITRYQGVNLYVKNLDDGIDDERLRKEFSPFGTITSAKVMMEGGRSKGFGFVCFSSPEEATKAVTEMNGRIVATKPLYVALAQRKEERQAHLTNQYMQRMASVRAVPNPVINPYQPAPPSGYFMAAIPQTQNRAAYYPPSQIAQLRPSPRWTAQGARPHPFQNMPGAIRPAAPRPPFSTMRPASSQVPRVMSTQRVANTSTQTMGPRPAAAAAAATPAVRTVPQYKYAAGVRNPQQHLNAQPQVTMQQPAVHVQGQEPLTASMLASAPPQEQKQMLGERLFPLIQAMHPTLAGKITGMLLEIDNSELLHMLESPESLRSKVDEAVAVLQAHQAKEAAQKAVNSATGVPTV

## Cc1ccc(C2CC2C(=O)NN=C(S)Nc2ccc(Cl)cc2)cc1 (configuration not stated)
[1]
  IC50: > 66 µM (inactive)
[2]
  IC50: > 66 µM (inactive)

## COc1ccc(S(=O)(=O)Nc2ccc3c(c2)CC(=O)N([C@H](C)CO)C[C@@H](C)[C@@H](CN(C)S(=O)(=O)c2ccc(Cl)cc2)O3)cc1
[3]
  AC50: 1.97 µM (active)

## CCN(CCCNC(=O)CN(C)S(=O)(=O)c1cccc2nsnc12)c1cccc(C)c1
[4]
  IC50: > 100 µM (not active)
[5]
  AC50: 3.31 µM (active)

## Cc1ccc(S(=O)(=O)Nc2cccc3c2O[C@@H](CN(C)Cc2ccc(C(=O)Nc4ccccc4N)cc2)[C@@H](C)CN([C@@H](C)CO)C3=O)cc1
[3]
  AC50: 2.17 µM (active)

## COc1ccc(NC(=O)Nc2cccc3c2O[C@H](CN(C)Cc2ccc(C(=O)Nc4ccccc4N)cc2)[C@H](C)CN([C@@H](C)CO)C3=O)cc1
[3]
  AC50: 5.98 µM (active)

## Cc1noc(C)c1NC(=O)Nc1cccc2c1O[C@H](CN(C)Cc1ccc(C(F)(F)F)cc1)[C@@H](C)CN([C@H](C)CO)C2=O
[3]
  AC50: 10.4 µM (active)

## NS(=O)(=O)c1ccc(CCNC(=O)Cc2cccs2)cc1
[6]
  IC50: > 100 µM (not active)

## CCN(CC)CCCN(Cc1cc2ccc(C)c(C)c2nc1O)C(=O)NC1CCCCC1
[7]
  AC50: 39.8 µM (inconclusive)
[8]
  AC50: > 20 µM (inactive)

## COc1ccc(-c2nn3cnnc3s2)cc1OC
[9]
  IC50: > 50 µM (not active)
[10]
  AC50: 1.41 µM (inconclusive)

## Oc1ccc(/C=N/NC(=S)Nc2cccnc2)cc1
[1]
  IC50: > 66 µM (inactive)
[2]
  IC50: > 66 µM (inactive)
[11]
  IC50: 19.4 µM (active)

## O=C(CSc1nnc(Cn2nnc(-c3ccccc3)n2)n1-c1ccccc1)Nc1ccc(F)cc1
[9]
  IC50: > 50 µM (not active)

## NC(=S)N/N=C/c1c(O)ccc2ccccc12
[12]
  EC50: 11.6 µM (active)
[1]
  IC50: > 66 µM (inactive)
[2]
  IC50: > 66 µM (inactive)
[13]
  AC50: 1.09 µM (active)
[14]
  EC50: 22.8 µM (active)
[15]
  EC50: 24.5 µM (active)

## COc1cccc2cc3c(=O)n(-c4ccccc4)nc-3oc12
[16]
  IC50: 15.7 µM (active)
[17]
  IC50: > 50 µM (not active)

## O=C(C[C@H]1CC[C@@H](NC(=O)Nc2ccccc2F)[C@@H](CO)O1)NCc1ccc(Cl)cc1
[18]
  AC50: 18.8 µM (active)
[19]
  AC50: 5.31 µM (active)
[20]
  AC50: 5.2 µM (active)

## CC(=O)N(c1ccc2oc(=O)sc2c1)S(=O)(=O)c1ccccc1
[4]
  IC50: > 100 µM (not active)
[11]
  IC50: 30.3 µM (active)

## CCSc1nnc(NC(=O)c2ccco2)s1
[9]
  IC50: > 50 µM (not active)

## Cc1ccc(SC(=O)c2c(C)noc2-c2cc(C)on2)cc1
[21]
  EC50: 8.74 µM (active)
[1]
  IC50: > 66 µM (inactive)
[2]
  IC50: > 66 µM (inactive)
[22]
  AC50: 6.38 µM (active)

## O=C(NCc1ccccc1)c1nc(-c2cccs2)no1
[9]
  IC50: > 50 µM (not active)

## Cn1nccc1-c1cc(Cl)cc(Cl)c1O
[9]
  IC50: > 50 µM (not active)

## CC(C)(C)NC(=O)C(c1ccccc1)N(Cc1cccs1)C(=O)c1csnn1 (configuration not stated)
[18]
  AC50: 8.36 µM (active)
[19]
  AC50: 5.72 µM (active)
[20]
  AC50: 6.9 µM (active)
[23]
  AC50: 38.5 µM (active)

## COc1ccc(NC(=O)Nc2ccc3c(c2)CC(=O)N([C@H](C)CO)C[C@@H](C)[C@@H](CN(C)Cc2ccc(-c4ccccc4)cc2)O3)cc1
[3]
  AC50: 3.14 µM (active)
